# Data taken from US9198891B2, “Method of treating cancer by inhibition of protein kinase-like endoplasmic reticulum protein kinase” (New York University, priority 2010, dated 2015).
# Tested on: Mouse PERK
# Assay: In vitro kinase inhibition assay: PERK-mediated eIF2α phosphorylation
# Type: biochemical
# Conditions: for Activity (ability to inhibit PERK-mediated eIF2α phosphorylation in vitro): compounds selected in the initial VLS; for relative inhibition of PERK among the six active compounds: initial VLS screening; for inhibition of PERK-dependent eIF2α phosphorylation in vitro: tested at 10 μM (FIG. 1C)
# Procedure: Mouse PERK proteins comprising the cytoplasmic portion of the molecule with the delta loop deleted were pre-incubated with varying concentrations of compound at room temperature for 10 minutes. This construct thus contains close to a minimal catalytic domain of PERK, closely similar but not identical to SEQ ID NO: 1. The kinase reaction was initiated by the addition of 2 μM ATP, 0.2 μM γ-[^32P]ATP, 10 μM eIF2α and allowed to proceed at room temperature for 15 minutes (Marciniak et al., “Activation-Dependent Substrate Recruitment by the Eukaryotic Translation Initiation Factor 2 Kinase PERK,” J Cell Biol 172: 201-9 (2006), which is hereby incorporated by reference in its entirety). The phosphorylated eIF2α was then separated on 14% SDS-PAGE and visualized by autoradiography. To determine the selectivity of the compounds, their ability to inhibit protein kinase PKA was also evaluated. Briefly, PKA was pre-incubated with the compound at 40 μM, the highest concentration used in the PERK assay, for 10 minutes. Then, 10 μM ATP, 0.2 μM γ-[^32P]ATP and 10 μM GSTag were added, followed by the incubation at room temperature for 15 minutes.
Compound,Activity (ability to inhibit PERK-mediated eIF2α phosphorylation in vitro),concentration range over which PERK inhibition is displayed,relative inhibition of PERK among the six active compounds,inhibition of PERK-dependent eIF2α phosphorylation in vitro
ON=C1CC2C3CC(C12)C1/C(=N\O)CC31 (stereo not drawn) [Compound A1],inactive,–,–,–
O=C(CNC(=O)c1ccco1)N/N=C/c1ccc(O)cc1 [Compound A2],inactive,–,–,–
Cc1ccccc1N1C(=O)CC(SC(=N)N/N=C/c2ccc(O)c(O)c2)C1=O (stereo not drawn) [Compound A3],inactive,–,–,–
COc1cc(/C=N\N(C)c2nc(-c3ccccc3)cc(-c3ccc(Br)cc3)n2)ccc1O [Compound A4],active,narrow range of concentration,relatively stronger inhibition of PERK,active
CCC(Oc1ccccc1)C(=O)Nc1sc2c(c1C(N)=O)CCC(C(C)(C)C)C2 (stereo not drawn) [Compound B2],active,–,–,–
O=C(Nc1cccc(Oc2ccc3c(c2)C(=O)N(c2ccc(O)cc2)C3=O)c1)c1ccco1 [Compound B6],active,–,–,–
Cc1ccc(OCCOCCOc2ccccc2/C=C2\SC(=N)NC2=O)cc1 [Compound C1],active,–,–,–
O=C(Nc1ccc(O)cc1C(=O)O)c1ccc(C(=O)Nc2ccc(O)cc2C(=O)O)cc1 [Compound C3],inactive,–,–,–
NS(=O)(=O)c1ccc(CNC(=O)/C=C/c2ccc3c(c2)OCO3)cc1 [Compound C6],inactive,–,–,–
O=C(COc1ccccc1)NC(=S)Nc1ccc(O)c(-c2nc3ccccc3s2)c1 [Compound D1],active,1 to 25 µM,relatively stronger inhibition of PERK,active
CCC(Sc1nnc(COc2ccccc2C)n1C)C(=O)Nc1ccc(C(C)=O)cc1 (stereo not drawn) [Compound D4],inactive,–,–,–
CCOC(=O)c1c(NC(=O)CSc2nc(N)cc(=O)[nH]2)sc2c1CCC2 [Compound E1],active,–,–,–
